The text below walks through data of ChEMBL document CHEMBL4507268 (2021).

Assay [1] deals with Mast/stem cell growth factor receptor Kit (Homo sapiens) (UniProt P10721). To be noted: Compound concentration 1000.0 nM.
Assay [2] addresses Tyrosine-protein kinase CSK (Homo sapiens) (UniProt P41240). To be noted: Compound concentration 1000.0 nM.
The test system of a further assay is SNU-449. Put plainly: Proliferation assay: SNU-449 (hepatocellular carcinoma). Type of assay: functional, cell-based. To be noted: Homo sapiens.
Assay [3] concerns the target T1, Serine/threonine-protein kinase DCLK3 (Homo sapiens) (UniProt Q9C098).
T1 sequence (whole entry): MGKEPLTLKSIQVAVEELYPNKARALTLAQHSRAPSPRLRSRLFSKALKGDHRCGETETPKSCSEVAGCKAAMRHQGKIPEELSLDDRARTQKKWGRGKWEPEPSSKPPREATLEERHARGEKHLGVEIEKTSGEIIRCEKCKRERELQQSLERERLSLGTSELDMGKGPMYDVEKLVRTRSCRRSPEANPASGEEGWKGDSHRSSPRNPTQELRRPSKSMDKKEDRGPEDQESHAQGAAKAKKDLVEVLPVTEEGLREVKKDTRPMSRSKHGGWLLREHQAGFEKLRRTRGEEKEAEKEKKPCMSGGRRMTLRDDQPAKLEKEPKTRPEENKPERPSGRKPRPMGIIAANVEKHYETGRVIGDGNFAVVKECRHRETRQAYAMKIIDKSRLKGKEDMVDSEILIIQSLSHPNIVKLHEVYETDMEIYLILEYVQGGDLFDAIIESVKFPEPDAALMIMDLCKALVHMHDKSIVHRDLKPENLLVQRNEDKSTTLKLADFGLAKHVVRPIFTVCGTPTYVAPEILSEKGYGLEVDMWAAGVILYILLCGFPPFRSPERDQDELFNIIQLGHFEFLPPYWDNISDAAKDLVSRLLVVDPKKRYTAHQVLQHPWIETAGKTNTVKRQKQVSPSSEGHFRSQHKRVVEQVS
The note with it: Compound concentration 1000.0 nM.

Assay [4] addresses Casein kinase I isoform gamma-3 (Homo sapiens) (UniProt Q9Y6M4). The note with it: Compound concentration 1000.0 nM.
The target in assay [5] is Serine/threonine-protein kinase 10 (Homo sapiens) (UniProt O94804). To be noted: Compound concentration 1000.0 nM.
Chain of Serine/threonine-protein kinase 10 (Homo sapiens) (O94804 whole entry, looked up): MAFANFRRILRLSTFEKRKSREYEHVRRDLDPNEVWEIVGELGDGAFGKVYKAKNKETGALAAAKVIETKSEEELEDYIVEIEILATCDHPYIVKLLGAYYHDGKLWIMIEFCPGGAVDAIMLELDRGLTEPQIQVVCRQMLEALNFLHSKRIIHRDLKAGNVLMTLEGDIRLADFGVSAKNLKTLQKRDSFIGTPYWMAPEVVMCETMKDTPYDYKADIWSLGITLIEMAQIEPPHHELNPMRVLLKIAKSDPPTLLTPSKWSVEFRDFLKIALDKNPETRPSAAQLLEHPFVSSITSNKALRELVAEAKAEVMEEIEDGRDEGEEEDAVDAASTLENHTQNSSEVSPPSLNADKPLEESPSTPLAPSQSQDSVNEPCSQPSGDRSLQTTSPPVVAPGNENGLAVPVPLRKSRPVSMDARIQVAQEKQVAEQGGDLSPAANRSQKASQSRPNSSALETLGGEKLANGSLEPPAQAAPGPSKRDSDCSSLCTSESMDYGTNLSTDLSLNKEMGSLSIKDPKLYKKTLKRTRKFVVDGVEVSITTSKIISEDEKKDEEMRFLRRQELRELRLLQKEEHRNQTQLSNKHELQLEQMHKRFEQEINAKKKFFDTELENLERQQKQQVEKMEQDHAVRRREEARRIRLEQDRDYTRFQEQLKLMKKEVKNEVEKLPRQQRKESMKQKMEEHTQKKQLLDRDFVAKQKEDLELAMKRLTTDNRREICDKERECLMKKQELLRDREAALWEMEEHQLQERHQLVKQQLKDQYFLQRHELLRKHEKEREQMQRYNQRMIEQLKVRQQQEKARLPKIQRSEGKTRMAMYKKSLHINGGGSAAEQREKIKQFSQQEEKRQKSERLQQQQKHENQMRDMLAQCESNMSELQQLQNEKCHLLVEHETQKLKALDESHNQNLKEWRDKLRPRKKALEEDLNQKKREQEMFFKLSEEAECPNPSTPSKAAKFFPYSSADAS
The test system of assay [6] is Epidermal growth factor receptor (Homo sapiens), P00533 [UNDEFINED MUTATION]. To be noted: Compound concentration 1000.0 nM.
Chain of Epidermal growth factor receptor (Homo sapiens), P00533 [UNDEFINED MUTATION] (P00533 whole entry, looked up, change not shown): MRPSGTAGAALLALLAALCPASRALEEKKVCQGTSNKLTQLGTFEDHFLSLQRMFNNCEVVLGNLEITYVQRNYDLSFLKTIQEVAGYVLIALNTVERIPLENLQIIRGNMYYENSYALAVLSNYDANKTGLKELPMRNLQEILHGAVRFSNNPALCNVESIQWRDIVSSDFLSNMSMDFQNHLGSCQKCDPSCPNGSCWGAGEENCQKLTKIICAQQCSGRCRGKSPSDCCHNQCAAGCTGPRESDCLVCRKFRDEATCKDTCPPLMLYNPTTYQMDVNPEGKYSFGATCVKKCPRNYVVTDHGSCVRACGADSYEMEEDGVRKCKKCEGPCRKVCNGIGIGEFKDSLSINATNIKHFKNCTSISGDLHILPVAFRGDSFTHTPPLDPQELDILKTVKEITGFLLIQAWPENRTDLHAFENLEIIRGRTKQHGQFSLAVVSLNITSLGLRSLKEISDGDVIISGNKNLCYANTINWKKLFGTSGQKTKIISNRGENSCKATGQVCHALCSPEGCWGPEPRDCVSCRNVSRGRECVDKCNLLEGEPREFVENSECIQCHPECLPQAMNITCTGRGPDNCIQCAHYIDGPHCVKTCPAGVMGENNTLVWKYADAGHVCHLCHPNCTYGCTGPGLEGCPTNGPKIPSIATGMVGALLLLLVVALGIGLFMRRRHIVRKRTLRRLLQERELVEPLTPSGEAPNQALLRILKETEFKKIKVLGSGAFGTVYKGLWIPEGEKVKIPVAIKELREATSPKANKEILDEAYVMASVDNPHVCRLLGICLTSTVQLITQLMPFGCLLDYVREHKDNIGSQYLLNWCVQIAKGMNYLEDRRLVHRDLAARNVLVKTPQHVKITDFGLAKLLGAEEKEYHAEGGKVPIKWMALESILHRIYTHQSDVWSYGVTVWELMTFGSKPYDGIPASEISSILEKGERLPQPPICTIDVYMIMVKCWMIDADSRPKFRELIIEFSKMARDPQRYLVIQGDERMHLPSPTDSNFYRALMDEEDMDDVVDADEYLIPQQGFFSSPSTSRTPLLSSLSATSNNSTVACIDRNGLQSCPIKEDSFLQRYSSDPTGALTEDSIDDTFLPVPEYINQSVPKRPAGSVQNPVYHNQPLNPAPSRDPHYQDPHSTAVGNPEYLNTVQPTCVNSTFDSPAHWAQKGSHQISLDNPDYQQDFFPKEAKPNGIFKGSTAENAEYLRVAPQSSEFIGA
Assay [7] has as its target Serine/threonine-protein kinase MRCK alpha (Homo sapiens) (UniProt Q5VT25). To be noted: Compound concentration 1000.0 nM.
In assay [8] the test system is Leucine-rich repeat serine/threonine-protein kinase 2 (Homo sapiens), Q5S007 [G2019S]. The note with it: Compound concentration 1000.0 nM.
In assay [9] the target is T2, Beta-adrenergic receptor kinase 1 (Homo sapiens) (UniProt P25098).
T2 sequence (whole entry): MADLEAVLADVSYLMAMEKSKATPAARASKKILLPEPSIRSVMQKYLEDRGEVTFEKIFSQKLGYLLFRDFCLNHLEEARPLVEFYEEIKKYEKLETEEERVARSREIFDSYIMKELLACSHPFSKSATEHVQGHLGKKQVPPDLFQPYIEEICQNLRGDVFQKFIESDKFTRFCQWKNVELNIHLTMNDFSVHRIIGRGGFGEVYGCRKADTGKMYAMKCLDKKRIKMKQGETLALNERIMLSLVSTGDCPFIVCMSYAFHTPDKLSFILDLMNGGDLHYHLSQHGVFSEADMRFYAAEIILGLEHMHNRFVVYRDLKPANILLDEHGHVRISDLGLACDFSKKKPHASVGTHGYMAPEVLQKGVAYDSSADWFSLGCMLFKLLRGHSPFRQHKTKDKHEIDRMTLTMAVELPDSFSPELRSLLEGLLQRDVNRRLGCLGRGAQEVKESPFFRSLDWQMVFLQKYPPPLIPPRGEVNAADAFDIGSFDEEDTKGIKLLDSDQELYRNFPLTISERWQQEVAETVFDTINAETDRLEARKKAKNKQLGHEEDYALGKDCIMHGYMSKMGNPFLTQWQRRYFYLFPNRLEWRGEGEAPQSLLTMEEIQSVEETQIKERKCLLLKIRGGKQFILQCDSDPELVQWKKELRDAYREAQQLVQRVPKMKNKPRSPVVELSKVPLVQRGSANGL
To be noted: Compound concentration 1000.0 nM.

Assay [10] deals with T3, Inhibitor of nuclear factor kappa-B kinase subunit beta (Homo sapiens) (UniProt O14920).
T3 sequence (whole entry): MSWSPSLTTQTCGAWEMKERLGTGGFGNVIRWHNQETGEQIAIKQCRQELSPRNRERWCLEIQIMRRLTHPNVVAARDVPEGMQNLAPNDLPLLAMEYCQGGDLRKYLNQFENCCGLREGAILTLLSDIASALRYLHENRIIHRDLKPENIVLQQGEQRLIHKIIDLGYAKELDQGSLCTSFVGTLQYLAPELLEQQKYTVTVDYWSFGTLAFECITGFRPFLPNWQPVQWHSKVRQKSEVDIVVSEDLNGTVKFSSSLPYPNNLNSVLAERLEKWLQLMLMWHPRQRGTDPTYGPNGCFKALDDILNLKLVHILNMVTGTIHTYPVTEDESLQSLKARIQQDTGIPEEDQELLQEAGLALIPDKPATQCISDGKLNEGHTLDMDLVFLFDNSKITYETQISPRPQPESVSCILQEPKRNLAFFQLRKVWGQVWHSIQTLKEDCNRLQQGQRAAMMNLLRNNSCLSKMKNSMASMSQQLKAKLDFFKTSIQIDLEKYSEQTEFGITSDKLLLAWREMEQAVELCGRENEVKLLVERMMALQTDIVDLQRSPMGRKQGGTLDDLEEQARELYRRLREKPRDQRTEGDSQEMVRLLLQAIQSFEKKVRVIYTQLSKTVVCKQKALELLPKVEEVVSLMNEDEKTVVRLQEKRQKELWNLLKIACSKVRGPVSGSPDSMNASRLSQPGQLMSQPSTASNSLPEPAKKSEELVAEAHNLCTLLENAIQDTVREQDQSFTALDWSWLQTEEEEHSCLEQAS
The note with it: Compound concentration 1000.0 nM.

For assay [11], the target named is T4, Aurora kinase A (Homo sapiens) (UniProt O14965).
T4 sequence (whole entry): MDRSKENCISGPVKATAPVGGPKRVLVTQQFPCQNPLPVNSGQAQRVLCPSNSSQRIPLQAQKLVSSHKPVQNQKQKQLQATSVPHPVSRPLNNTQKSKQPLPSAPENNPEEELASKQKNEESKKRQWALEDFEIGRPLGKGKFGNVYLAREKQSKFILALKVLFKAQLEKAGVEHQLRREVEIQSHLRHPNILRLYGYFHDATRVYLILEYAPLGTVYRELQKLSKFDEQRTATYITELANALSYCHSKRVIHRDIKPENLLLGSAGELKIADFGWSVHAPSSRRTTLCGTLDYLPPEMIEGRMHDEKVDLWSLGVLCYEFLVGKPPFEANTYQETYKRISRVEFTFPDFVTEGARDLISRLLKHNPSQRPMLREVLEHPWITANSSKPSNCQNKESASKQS
To be noted: Compound concentration 1000.0 nM.

The structures appear in SMILES notation. A value given as a limit tells only on which side of the number the result lay.

Chain of Tyrosine-protein kinase CSK (Homo sapiens) (P41240 2-450 limits assumed): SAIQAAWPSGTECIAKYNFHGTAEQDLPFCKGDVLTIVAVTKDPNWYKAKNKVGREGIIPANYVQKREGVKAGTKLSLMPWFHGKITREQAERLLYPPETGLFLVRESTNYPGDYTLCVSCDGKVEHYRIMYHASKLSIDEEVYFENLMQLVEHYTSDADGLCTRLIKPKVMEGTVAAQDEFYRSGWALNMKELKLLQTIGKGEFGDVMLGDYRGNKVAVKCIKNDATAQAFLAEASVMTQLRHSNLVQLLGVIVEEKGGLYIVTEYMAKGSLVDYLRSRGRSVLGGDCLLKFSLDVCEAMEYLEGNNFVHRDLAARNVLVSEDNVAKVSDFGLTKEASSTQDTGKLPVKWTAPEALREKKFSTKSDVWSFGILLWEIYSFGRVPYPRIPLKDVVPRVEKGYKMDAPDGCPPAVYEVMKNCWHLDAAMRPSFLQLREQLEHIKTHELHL
Chain of Mast/stem cell growth factor receptor Kit (Homo sapiens) (P10721 whole entry): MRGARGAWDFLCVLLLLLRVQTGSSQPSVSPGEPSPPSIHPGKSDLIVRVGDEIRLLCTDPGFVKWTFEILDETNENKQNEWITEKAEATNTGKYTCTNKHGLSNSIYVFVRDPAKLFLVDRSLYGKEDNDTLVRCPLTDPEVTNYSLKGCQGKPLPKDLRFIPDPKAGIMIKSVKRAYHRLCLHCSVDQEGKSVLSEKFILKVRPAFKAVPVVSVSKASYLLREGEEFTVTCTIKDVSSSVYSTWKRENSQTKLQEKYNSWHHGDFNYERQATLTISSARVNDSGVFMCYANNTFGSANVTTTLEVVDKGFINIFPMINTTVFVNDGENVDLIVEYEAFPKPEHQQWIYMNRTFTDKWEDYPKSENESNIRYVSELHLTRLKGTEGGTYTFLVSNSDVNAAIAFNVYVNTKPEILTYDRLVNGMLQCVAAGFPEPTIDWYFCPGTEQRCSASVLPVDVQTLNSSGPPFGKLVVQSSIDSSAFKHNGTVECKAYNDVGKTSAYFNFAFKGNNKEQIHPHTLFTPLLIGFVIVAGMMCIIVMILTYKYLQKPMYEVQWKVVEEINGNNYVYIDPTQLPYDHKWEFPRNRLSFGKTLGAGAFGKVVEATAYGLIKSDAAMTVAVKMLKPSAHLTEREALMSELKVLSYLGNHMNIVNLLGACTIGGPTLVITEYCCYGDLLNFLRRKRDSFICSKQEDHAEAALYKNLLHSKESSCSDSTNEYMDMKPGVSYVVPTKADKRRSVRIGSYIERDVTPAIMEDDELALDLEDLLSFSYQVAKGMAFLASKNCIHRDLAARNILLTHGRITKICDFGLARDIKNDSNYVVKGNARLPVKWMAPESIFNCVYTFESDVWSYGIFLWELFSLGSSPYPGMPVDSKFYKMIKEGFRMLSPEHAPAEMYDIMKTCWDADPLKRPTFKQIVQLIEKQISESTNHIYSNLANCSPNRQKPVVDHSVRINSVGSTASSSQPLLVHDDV
Chain of Casein kinase I isoform gamma-3 (Homo sapiens) (Q9Y6M4 whole entry, looked up, canonical isoform): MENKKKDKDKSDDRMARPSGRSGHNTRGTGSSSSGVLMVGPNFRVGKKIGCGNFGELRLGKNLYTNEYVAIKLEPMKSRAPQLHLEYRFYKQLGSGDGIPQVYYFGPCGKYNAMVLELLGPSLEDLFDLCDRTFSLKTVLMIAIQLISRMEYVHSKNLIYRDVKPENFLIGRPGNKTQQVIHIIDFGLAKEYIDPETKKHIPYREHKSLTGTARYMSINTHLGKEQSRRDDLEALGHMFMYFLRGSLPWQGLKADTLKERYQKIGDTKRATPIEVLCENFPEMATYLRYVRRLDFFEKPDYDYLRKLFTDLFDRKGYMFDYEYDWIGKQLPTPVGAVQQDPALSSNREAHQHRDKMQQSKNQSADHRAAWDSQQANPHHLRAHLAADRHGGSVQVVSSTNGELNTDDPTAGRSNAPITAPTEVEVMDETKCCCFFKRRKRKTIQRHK

As to `Cc1nc(C2CCN(C(=O)c3ccc(OC(F)(F)F)cc3N)CC2)c2ncc(N3CCN(C)CC3)cc2n1` [BAY-693], the residual activity (in general, the activity still measured, relative to the control) is 76% in [1]; 100% in assay [2]; 98% in [3]; 100% in [4]; 96% in assay [5]; 70% in assay [6]. Also, the residual activity in [7] is 99%; in [8], 100%; in assay [9] it was 92%; in [10], 78%; in [11], 99%. The 50% inhibitory concentration (IC50) – broadly, the point on the concentration scale where inhibition reaches its midpoint – in the assay with SNU-449 is recorded as 19.5 µM (not active).

As for `CN1CCN(c2cnc3c(C4CCN(C(=O)c5ccc(OC(F)(F)F)cc5N)CC4)ncnc3c2)CC1` [BAY-885], the residual activity in assay [1] is 85%; in [2] it was 100%; in [3], 91%; in assay [4], 100%; in [5], 52%; in [6], 83%. Also, the residual activity in assay [7], in [8], in [9], in assay [10] and in assay [11] was 100% throughout. For the same compound, in the assay with SNU-449, the IC50 was > 30 µM (not active).
